# Measurements published in US8114843B2, “Photoreactive regulator of protein function and methods of use thereof” (The Regents of the University of California, priority 2005, dated 2012).
# “Also recorded” adds a separate entry of the source.
# Assays:
# Purkinje neurons = test: Loose-patch extracellular recording in cerebellar slices; type: cell-based, rat; details: gabazine added
# Description: Brain Slice Preparation. Parasagittal cerebellar slices were prepared using standard techniques approved by the UCLA Animal Care Committee. […] PAL attachment. […] For cerebellar slices, neuronal cell bodies were visualized using an upright microscope with a 40× water immersion lens and equipped with an infrared-DIC enhancement. Loose-patch extracellular recordings were performed using an Axopatch 200B amplifier (Axon Instruments). Electrophysiological recordings were filtered at 1 KHz and digitized at 2-4 KHz. Pipettes were typically 1.4-2.0 MΩ for recordings from PNs and 3.0-3.5 MΩ for interneurons and filled with aCSF. […] All recordings were performed at room temperature. […] Excitation filters were changed using a lambda 10-2 filter changer (Sutter Instruments) controlled via pCLAMP software.
# Solubility = type: physicochemical; details: for solubility: read-out: solubility limit
# wild-type Shaker (E422) = target: T1, wild-type Shaker (E422) (Drosophila melanogaster, UniProt P08510, DEL6-46); test: PAL photoswitching, whole-cell patch clamp in HEK293 cells; type: cell-based
# T1 construct: expressed in transfected cells; host or cells: HEK293
# Description: Cell culture and transfection. HEK293 cells were grown in DMEM containing 5% fetal bovine serum, at 37° C., 7% CO2. For electrophysiology, cells were plated at 12×10^5 cells/cm^2 on poly-L-lysine coated coverslips and transfected using the calcium phosphate method. Recordings were performed 24-36 hours after transfection.
# (§1) PAL attachment. HEK293 and hippocampal cells were rinsed in extracellular solution containing in mM: 138 NaCl, 1.5 KCl, 1.2 MgCl2, 2.5 CaCl2, 5 HEPES, 10 glucose and incubated at 37° C. in the dark with 200-250 μM PAL for 15 minutes. For slices, AAQ was diluted to 200 μM in aCSF and treatment was performed in the dark at room temperature for 10 minutes.
# (§2) Electrophysiological recording. Recordings from HEK293 and hippocampal neurons were made in the whole-cell patch clamp configuration using a PC-501A amplifier (Warner Instruments). Pulse protocols and measurements were carried out with pCLAMP and a Digidata 1322 interface (Axon Instruments). For voltage-clamp experiment, cells were held at −70 mV. Data was recorded at 20 kHz and filtered at 2 kHz. Recording pipettes with 2.5-4 MΩ resistance were filled with intracellular solution containing in mM: 10 NaCl, 135 K-gluconate, 10 HEPES, 2 MgCl2, 2 MgATP, 1 EGTA, pH 7.4.
# Illumination was provided using a xenon lamp (Sutter Instruments) with narrow band pass filters (380 BP10 for UV and 500 BP5 for visible light respectively). Excitation filters were changed using a lambda 10-2 filter changer (Sutter Instruments) controlled via pCLAMP software.
# Percent photoswitching was defined as the difference between current in UV and visible light divided by current in UV. All data shown in bar graphs are averages±standard error of the mean.
# [1] = system: cultured hippocampal neurons; test: Live/Dead assay after PAL treatment; type: cell-based; details: 200 μM
# Excerpt: Live/Dead assay. After PAL treatment, hippocampal neurons were processed for the live dead assay (Molecular Probes) according to the manufacturer's instructions. Cells were counted in 4-8 fields for each treatment condition.
# [2] = system: hippocampal pyramidal neurons transfected with the multiply-mutated Shaker channel; test: Current clamp recordings from cultured hippocampal neurons treated with MAL-AZO-QA; type: cell-based, rat
# Description: Primary dissociated hippocampal cultures were prepared from E18-19 Sprague-Dewey rat embryos and grown on glass cover slips in serum-containing media and incubated in 7% CO2 in air at 37° C. Cells were co-transfected with GFP along with the modified Shaker channel described above with additional L366A and V454L mutations. Transfections with Lipofectamine 2000™ were performed at 12-14 DIV. About 10% of the cultured neurons appeared GFP-positive at 2-3 days after transfection. Coverslips containing the neurons were treated at 37° C. for 15 min with 300 μM MAL-AZO-QA in an extracellular recording solution containing (in mM) 135 NaCl, 5 KCl, 1.2 MgCl2, 5 HEPES, 2.5 CaCl2, and 10 glucose at pH 7.4. Patch pipettes (7-10 MΩ) were filled with 10 NaCl, 135 K-gluconate, 10 HEPES, 2 MgCl2, 2 Mg-ATP, and 1 EGTA at pH 7.4. After washout of MAL-AZO-QA with extracellular solution, membrane potential was recorded at room temperature under whole-cell current clamp with an AXOPATCH 200A amplifier (Axon Instruments) and filtered at 10 kHz. Initial recordings were made at resting potential to evaluate the effects of light on spontaneous activity. In experiments where we wanted to quantify the effect of light on firing (e.g. FIG. 4b), cultures were treated with 6-cyano-7-nitroquinoxaline-2,3-dione (CNQX) (1 μM) and bicuculline (10 μM) to silence synaptic activity. Baseline currents were adjusted to set the membrane potential at −50 mV before depolarizing current steps ranging from 0.01-0.03 nA were applied to evoke action potentials. Cells were irradiated with a Lambda-LS illuminator containing a 125 watt xenon arc lamp (Sutter Instruments Company), equipped with narrow bandpass (+/−10 nm) filters through a Fluor 20×, 0.5 NA objective lens (Nikon). Variability among data is expressed as mean+/−SEM, unless noted otherwise.
# [3] = target: Shaker H4 (Δ6-46, E422C, T449V) (Drosophila melanogaster, UniProt P08510, DEL6-46/E422C/T449V); test: Patch recordings of MAL-AZO-QA-modified Shaker channels in Xenopus oocytes; type: cell-based
# Description: Xenopus oocytes were injected with […] of mRNA encoding Shaker H4, with the following mutations: Δ6-46, E422C, T449V. […] Devitillenized oocytes were recorded from 2-10 days post-injection using standard patch-clamp methods. For outside-out patches, glass patch pipettes (2-4 MΩ) were filled with a solution containing (in mM) 100 KCl, 10 HEPES, 0.1 CaCl2, 0.5 MgCl2, and 10 EGTA, while the bath contained 10 KCl, 90 NaCl, 10 HEPES, 0.1 CaCl2, 0.5 MgCl2, and 10 EGTA. For inside-out patches, patch pipettes and bath both contained 100 KCl, 10 HEPES, 0.1 CaCl2, 0.5 MgCl2, and 10 EGTA. The pH of all solutions was 7.1. Solid MAL-AZO-QA was dissolved as a concentrated stock solution in DMSO and stored at −20° C. until the day of use. Stocks were diluted into oocyte bath solution to final concentrations of 10 μM or 100 μM. […] Pulse protocols and measurements were performed with pCLAMP software, a DigiData 1200 series interface, and a PC-505 amplifier (Warner Instruments). Samples were taken at 10 kHz and the data was filtered at 1 kHz. Patches were held at −90 mV, pulsed to −100 mV for 60 msec to monitor leak, and pulsed to −20 mV for 30-100 msec at 1 Hz to elicit Shaker currents. The peak of the Shaker currents was measured to minimize the contribution of slow inactivation. Patches with a leak conductance>100 pS were not included in analysis.
# Discrete wavelengths of light (+/−10 nm) were focused on patches through a quartz coverslip with a Fluor 20×, 0.5 NA objective lens (Nikon). Output intensity was measured for wavelengths between 300 and 600 nm. The measured output intensities for wavelengths between 340-600 nm ranged from 0.324e-8 to 6.23e-8 W/cm^2. Differences in light intensities at different wavelengths were taken into account when determining action spectra for channel block and unblock.
# [4] = system: voltage-gated outward current (endogenous K+ channels) in cultured hippocampal neurons; test: Photocontrol of K+ current in cultured hippocampal neurons; type: cell-based, rat; details: 200 μM, 15 min in the dark
# Description: Hippocampal neurons were prepared from neonatal Sprague-Dawley rats according to standard procedures (Goslin) and grown on poly-L-lysine coated coverslips in MEM supplemented with 5% fetal bovine serum, B27 (Invitrogen), glutamine and serum extender (BD Biosciences). Animal care and experimental protocols were approved by the UC Berkeley Animal Care and Use Committee. Recordings were performed 9-16 days after plating. The Shaker construct also contains an N-terminal deletion (Δ6-46) to minimize fast inactivation.
# as §1
# as §2, with “Recording pipettes with 2.5-4 MΩ resistance were filled with intracellular solution containing in mM: 10 NaCl, 135 K-gluconate, 10 HEPES, 2 MgCl2, 2 MgATP, 1 EGTA, pH 7.4.” left out
# iGluR6 = target: T2, iGluR6 (Rattus norvegicus, UniProt P42260); test: Calcium imaging of iGluR6 activity in HEK293 cells; type: cell-based
# T2 construct: expressed in transfected cells; host or cells: HEK293
# Description: HEK293 cells were plated at approximately 3×10^6 cells/ml on poly-L-lysine-coated glass coverslips (Deutsche Spiegelglas, Carolina Biological) and maintained in DMEM with 5% fetal bovine serum, 0.2 mg/ml streptomycin, and 200 U/ml penicillin at 37° C. Cells were transiently transfected with various plasmids using lipofectamine 2000 (Invitrogen). The amount of total transfected iGluR6 DNA and enhanced yellow fluorescent protein (EYFP) fusion DNA per well was fixed at 4 μg and 200 ng, respectively. All recordings were carried out 36 to 48 h after transfection.
# —Cells were washed in PBS and loaded with 5 μM FURA-2-AM (Molecular Probes) for 30 min. […] Fluorescence was monitored on an inverted microscope system (Nikon). […] L-Glutamate was applied as reported in text and figures. The results are representative data from multiple cells in at least two independent cultures.
# hippocampal neurons = test: Live-Dead viability/cytotoxicity assay after MAG exposure; details: 12 hours continuous exposure, several concentrations; listed as MAG
# Description: Neuronal survival following 12 hours of continuous exposure to several concentrations of MAG was also examined.
# [5] = Photostationary state determination by NMR; type: physicochemical; details: MAG-1 conjugated to β-mercaptoethanol, D2O
# Description: Cis-trans photoisomerization of MAG-1 conjugated with β-mercaptoethanol (see Supplementary Methods online) was studied by ^1H NMR, with in situ irradiation of sample using a Polychrom V system monochromator (Till Photonics) containing a 150 W Xenon short arc lamp with an output range of 320-680 nm (29). The half-power bandwidth was 14 nm. A 500 μl aliquot of a 100 μM sample in D2O was prepared in a screw-capped 528-TR-7 NMR tube (Wilmad). A FT-600-UMT fiber optic cable (NA 0.39) (Thorlabs) was coupled at one end to the monochromator using a custom fitting and the other end inserted into the NMR tube a few millimeters above the solution. Each sample was irradiated at the desired wavelength for 30 minutes to reach the photostationary state and 480 scans were required to obtain reasonable signal-to-noise ratios. The output from the fiber optic cable between 340-480 nm ranged from 0.3-9.0 μW/cm^2. Data were processed by isolating aromatic cis-trans ^1H signals and summing their integrals to 1.0. All data were obtained in triplicate and averaged. This analysis will be detailed further in a future paper by Banghart, M. R. et al. (in preparation).
# T2 sequence (P42260 32-908): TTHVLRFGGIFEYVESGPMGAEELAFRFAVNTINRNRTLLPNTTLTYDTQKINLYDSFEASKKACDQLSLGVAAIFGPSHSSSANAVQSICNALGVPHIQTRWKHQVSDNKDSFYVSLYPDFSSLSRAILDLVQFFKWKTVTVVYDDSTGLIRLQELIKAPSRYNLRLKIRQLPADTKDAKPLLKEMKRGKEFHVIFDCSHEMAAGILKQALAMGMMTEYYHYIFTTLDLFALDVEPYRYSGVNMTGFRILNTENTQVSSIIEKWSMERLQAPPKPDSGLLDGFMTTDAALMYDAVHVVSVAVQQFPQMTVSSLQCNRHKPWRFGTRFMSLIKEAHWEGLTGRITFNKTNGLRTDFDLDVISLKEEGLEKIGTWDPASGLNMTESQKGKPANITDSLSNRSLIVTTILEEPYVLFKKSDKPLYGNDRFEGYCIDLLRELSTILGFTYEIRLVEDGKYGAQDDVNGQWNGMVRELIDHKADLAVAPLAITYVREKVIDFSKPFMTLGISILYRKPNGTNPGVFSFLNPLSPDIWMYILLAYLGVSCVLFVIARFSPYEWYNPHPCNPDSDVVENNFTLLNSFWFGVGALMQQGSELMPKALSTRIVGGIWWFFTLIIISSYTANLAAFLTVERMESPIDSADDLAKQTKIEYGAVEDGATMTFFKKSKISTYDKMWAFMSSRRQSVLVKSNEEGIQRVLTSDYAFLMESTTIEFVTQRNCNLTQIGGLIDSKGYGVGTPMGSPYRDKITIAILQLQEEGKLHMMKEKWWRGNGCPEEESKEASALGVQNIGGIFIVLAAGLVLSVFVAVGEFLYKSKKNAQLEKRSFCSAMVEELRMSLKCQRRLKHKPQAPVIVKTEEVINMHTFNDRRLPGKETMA
# Chain of Shaker H4 (Δ6-46, E422C, T449V) (P08510 other isoform, or with tags, fused parts or gaps DEL6-46/E422C/T449V): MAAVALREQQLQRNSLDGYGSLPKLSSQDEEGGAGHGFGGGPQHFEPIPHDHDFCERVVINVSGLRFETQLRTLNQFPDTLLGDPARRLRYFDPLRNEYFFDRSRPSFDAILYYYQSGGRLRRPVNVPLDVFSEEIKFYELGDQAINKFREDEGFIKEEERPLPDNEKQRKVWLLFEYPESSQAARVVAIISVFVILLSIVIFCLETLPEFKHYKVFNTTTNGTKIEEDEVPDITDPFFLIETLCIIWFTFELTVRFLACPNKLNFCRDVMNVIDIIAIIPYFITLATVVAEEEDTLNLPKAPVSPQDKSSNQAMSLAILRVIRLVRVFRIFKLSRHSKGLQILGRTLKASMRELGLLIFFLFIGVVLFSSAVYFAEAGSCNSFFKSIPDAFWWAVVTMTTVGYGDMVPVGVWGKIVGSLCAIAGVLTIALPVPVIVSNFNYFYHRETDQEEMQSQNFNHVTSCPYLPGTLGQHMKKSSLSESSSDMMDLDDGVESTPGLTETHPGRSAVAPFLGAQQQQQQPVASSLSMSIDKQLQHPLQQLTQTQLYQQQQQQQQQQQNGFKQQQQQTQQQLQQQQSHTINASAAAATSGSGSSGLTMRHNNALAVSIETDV
# T1 sequence (P08510 other isoform, or with tags, fused parts or gaps DEL6-46): as the sequence (P08510 other isoform, or with tags, fused parts or gaps DEL6-46/E422C/T449V) above, with C381E, V408T counted along it
smiles,measurement,setting,value
"COc1ccc(-c2ccc(=N)n(CCCC(=O)O)n2)cc1 [Gabazine, reference compound]",basal firing rate of Purkinje cells,Purkinje neurons,~15 Hz
"O=c1[nH]c2cc([N+](=O)[O-])c([N+](=O)[O-])cc2[nH]c1=O [DNQX, 6,7-dinitroquinoxaline-2,3-[1H,4H]-dione, reference compound]",solubility,Solubility,4 mM
CC[N+](CC)(CC)CC(=O)Nc1ccc(/N=N/c2ccc(NC(=O)CCl)cc2)cc1 [CAQ],light-sensitivity conferred on channel,wild-type Shaker (E422),conferred light-sensitivity
same,water solubility compared with AAQ,Solubility,less water-soluble
same,death of neurons,[1]; 15 min,~10%
same,loss of neurons,[1]; 60 min,~15%
CC[N+](CC)(CC)CC(=O)Nc1ccc(/N=N/c2ccc(NC(=O)CN3C(=O)C=CC3=O)cc2)cc1 [MAL-AZO-QA],time to silence spontaneous action potentials,[2]; 390 nm light,≤ 3 s
same,decrease in number of action potentials elicited by a depolarizing step,"[2]; 390 nm light, n=4",79%
same,onset of restored activity in the dark after silencing,[2]; dark,> 30 s
same,effect of light on treated neurons expressing GFP without the Shaker channels,[2]; n=4,no effect
same,wavelength most effective in unblocking channels,"[3]; action spectrum, inside-out patches",380 nm
same,return of unblocked channels to the blocked state in the dark,[3]; dark,> 5 min
same,τ1 of current block in dark (biexponential),[3]; dark,0.49 min
same,τ2 of current block in dark (biexponential),[3]; dark,4.79 min
same,current unblocked by ultraviolet light,"[3]; inside-out patch, oocytes treated with 100 μM for 30 min",≤ 1 nA
same,reduction of voltage-gated Shaker current,"[3]; outside-out patch, 10 μM, over 4 min",> 60%
same,time for unblock and re-block to nearly reach steady-state,[3]; standard epifluorescence illumination,≤ 5 s
same,percent of the outward current that could be photoswitched,[4],2±5%
N[C@@H](CC(CCCC(=O)NCC(=O)Nc1ccc(/N=N/c2ccc(NC(=O)CN3C(=O)C=CC3=O)cc2)cc1)C(=O)O)C(=O)O (stereo in doubt) [MAG-1],solubility,Solubility,0.2 mM
same,"light sensitivity conferred (Ca2+ increase at 380 nm, decrease at 500 nm)",iGluR6; wildtype iGluR6 (WT),not on wildtype iGluR6
same,cell death compared with controls,hippocampal neurons,no difference; also recorded: no increase in cell death
same,fraction in the cis-state,[5]; 380 nm,93.0±0.6%
same,fraction in the trans-state,[5]; 500 nm,83.0±0.6%
Cl.N[C@@H](C[C@@H](CCCC(=O)NCC(=O)Nc1ccccc1)C(=O)O)C(=O)O [tether model 3],solubility,Solubility,10 mM
same,maximal response compared with saturating glutamate,iGluR6,similar
same,EC50,"iGluR6; FURA-2-AM calcium imaging, HEK293, read-out: EC50 for activating iGluR6",180 µM
